Source: publication PMC10135569, “Does Enhanced Structural Maturity of hiPSC-Cardiomyocytes Better for the Detection of Drug-Induced Cardiotoxicity?” (Biomolecules, 2023)

Key:
[1] = test system: hiPSC-CMs (iCell2 Cardiomyocytes) 2D monolayers; experiment: Membrane potential (action potential) recordings with FluoVolt voltage-sensitive dye on the CellOPTIQ platform; type: cell-based, human; conditions: for activity at 0.03 µM / activity at 0.1 µM / activity at 0.3 µM / activity at 1 µM / activity at 0.01 µM: Homo sapiens, Cardiomyocyte, 0.5 h, 30 min, delta over DMSO 0.1%
How it was run: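 iCell2 hiPSC-CM monolayers (50,000 cells/well on fibronectin or Matrix Plus, days 5–6) were loaded with FluoVolt (1:1000, 20 min, 37 °C) and imaged at 37 °C with 470 nm excitation and 510–560 nm emission sampled at 10 kHz. Spontaneous action potentials were recorded for 10 s at baseline and 30 min after drug, with one of four concentrations per well (n = 8).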

[2] = test system: hiPSC-CMs (iCell2 Cardiomyocytes) 2D monolayers; experiment: Contractility measurements using video imaging (ContractilityTool / MUSCLEMOTION); type: cell-based, human; conditions: for activity at 0.03 µM / activity at 0.1 µM / activity at 0.3 µM / activity at 1 µM / activity at 0.01 µM: Homo sapiens, Cardiomyocyte, 0.5 h, 30 min, delta over DMSO 0.1%
How it was run: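 Monolayers on fibronectin or Matrix Plus coating, tested on days 5–6 in serum-free medium. Four concentrations, one per well, n = 8, with vehicle control.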

[3] = FM monolayer, read-out: APD30 (%DD)
[4] = FM monolayer, read-out: APD90 (%DD)
[5] = FM monolayer, read-out: CL (%DD)
[6] = FM monolayer, read-out: Trise (%DD)
[7] = MM monolayer, read-out: APD30 (%DD)
[8] = MM monolayer, read-out: APD90 (%DD)
[9] = MM monolayer, read-out: CL (%DD)
[10] = MM monolayer, read-out: Trise (%DD)
[11] = both FM and MM monolayers, concentration not given
[12] = FM monolayer, read-out: CtAmp (%DD)
[13] = FM monolayer, read-out: CtD50 (%DD)
[14] = MM monolayer, read-out: CtAmp (%DD)
[15] = MM monolayer, read-out: CtD50 (%DD)
[16] = 300 nM, both 2D systems, positive control

Work on `C[N+](C)(C)CCOC(N)=O` [Carbachol] yielded an activity at 0.03 µM [1, 3] of 97 ± 2.3%, an activity at 0.03 µM [1, 4] of 99 ± 1.4% and an activity at 0.03 µM [1, 5] of 99 ± 2.6%. The activity at 0.03 µM [1, 6] was 104 ± 11.8%, the activity at 0.1 µM [1, 3] was 104 ± 2.6% and the activity at 0.1 µM [1, 4] was 100 ± 1.2%. It also gave an activity at 0.1 µM [1, 5] of 105 ± 0.6%, an activity at 0.1 µM [1, 6] of 125 ± 18.5% and an activity at 0.3 µM [1, 3] of 102 ± 2.9%. It also gave an activity at 0.3 µM [1, 4] of 103 ± 1%, an activity at 0.3 µM [1, 5] of 109 ± 1% and an activity at 0.3 µM [1, 6] of 118 ± 17.5%. It also gave an activity at 1 µM [1, 3] of 103 ± 1.6%, an activity at 1 µM [1, 4] of 110 ± 1.1% and an activity at 1 µM [1, 5] of 114 ± 0.5%. The activity at 1 µM [1, 6] was 95 ± 17.7%, the activity at 0.03 µM [1, 7] was 105 ± 2.2% and the activity at 0.03 µM [1, 8] was 103 ± 1.8%. For the same compound, the activity at 0.03 µM [1, 9] was 106 ± 0.3%, the activity at 0.03 µM [1, 10] was 186 ± 29% and the activity at 0.1 µM [1, 7] was 106 ± 2.4%. For the same compound, the activity at 0.1 µM [1, 8] was 107 ± 1.1%, the activity at 0.1 µM [1, 9] was 115 ± 0.6% and the activity at 0.1 µM [1, 10] was 144 ± 20.7%. For the same compound, the activity at 0.3 µM [1, 7] was 111 ± 1.9%, the activity at 0.3 µM [1, 8] was 111 ± 1.1% and the activity at 0.3 µM [1, 9] was 122 ± 0.9%. For the same compound, the activity at 0.3 µM [1, 10] was 143 ± 22.1%, the activity at 1 µM [1, 7] was 120 ± 2.3% and the activity at 1 µM [1, 8] was 118 ± 1%. The activity at 1 µM [1, 9] was 131 ± 0.7%, the activity at 1 µM [1, 10] was 143 ± 17.8% and the “effect on cycle length (in words)” value [1, 11] was “concentration-dependent increase”. It also gave an activity at 0.03 µM [2, 12] of 94 ± 15.9%, an activity at 0.03 µM [2, 13] of 104 ± 2.1% and an activity at 0.1 µM [2, 12] of 85 ± 10.4%. It also gave an activity at 0.1 µM [2, 13] of 103 ± 2%, an activity at 0.3 µM [2, 12] of 102 ± 21.3% and an activity at 0.3 µM [2, 13] of 108 ± 2.1%. It also gave an activity at 1 µM [2, 12] of 109 ± 13.8%, an activity at 1 µM [2, 13] of 107 ± 3.7% and an activity at 0.03 µM [2, 14] of 86 ± 6.4%. It also gave an activity at 0.03 µM [2, 15] of 98 ± 1.5%, an activity at 0.1 µM [2, 14] of 135 ± 12.9% and an activity at 0.1 µM [2, 15] of 102 ± 1.8%. It also gave an activity at 0.3 µM [2, 14] of 118 ± 12.9%, an activity at 0.3 µM [2, 15] of 111 ± 2.1% and an activity at 1 µM [2, 14] of 114 ± 18.4%. For the same compound, the activity at 1 µM [2, 15] was 118 ± 1.5%.

With `CC(C)NCC(O)c1ccc(O)c(O)c1` (centres unmarked) [Isoprenaline] the “effect on APD90” value [1, 16] was “decreased”, the “effect on spontaneous beat rate” value [1, 16] was “increased” and the activity at 0.01 µM [1, 3] was 97 ± 2%. It also gave an activity at 0.01 µM [1, 4] of 94 ± 1.9%, an activity at 0.01 µM [1, 5] of 90 ± 1.4% and an activity at 0.01 µM [1, 6] of 80 ± 7.3%. The activity at 0.03 µM [1, 3] was 85 ± 1.7%, the activity at 0.03 µM [1, 4] was 77 ± 0.6% and the activity at 0.03 µM [1, 5] was 74 ± 0.6%. The activity at 0.03 µM [1, 6] was 97 ± 8.6%, the activity at 0.1 µM [1, 3] was 68 ± 0.8% and the activity at 0.1 µM [1, 4] was 60 ± 1%. For the same compound, the activity at 0.1 µM [1, 5] was 56 ± 0.6%, the activity at 0.1 µM [1, 6] was 106 ± 4.5% and the activity at 0.3 µM [1, 3] was 62 ± 1%. It also gave an activity at 0.3 µM [1, 4] of 52 ± 0.5%, an activity at 0.3 µM [1, 5] of 49 ± 0.6% and an activity at 0.3 µM [1, 6] of 106 ± 8.1%. The activity at 0.01 µM [1, 7] was 92 ± 0.8%, the activity at 0.01 µM [1, 8] was 96 ± 0.8% and the activity at 0.01 µM [1, 9] was 90 ± 0.9%. The activity at 0.01 µM [1, 10] was 146 ± 13.3%, the activity at 0.03 µM [1, 7] was 83 ± 0.9% and the activity at 0.03 µM [1, 8] was 86 ± 1%. It also gave an activity at 0.03 µM [1, 9] of 77 ± 0.6%, an activity at 0.03 µM [1, 10] of 115 ± 12.9% and an activity at 0.1 µM [1, 7] of 68 ± 1.5%. For the same compound, the activity at 0.1 µM [1, 8] was 68 ± 1.2%, the activity at 0.1 µM [1, 9] was 63 ± 0.8% and the activity at 0.1 µM [1, 10] was 93 ± 5.5%. For the same compound, the activity at 0.3 µM [1, 7] was 62 ± 0.8%, the activity at 0.3 µM [1, 8] was 61 ± 0.9% and the activity at 0.3 µM [1, 9] was 56 ± 0.8%. The activity at 0.3 µM [1, 10] was 129 ± 10.9%, the “effect on APD90 (in words)” value [1, 11] was “significantly decreased” and the “effect on contraction duration” value [2, 16] was “decreased”. For the same compound, the activity at 0.01 µM [2, 12] was 94 ± 5.2%, the activity at 0.01 µM [2, 13] was 94 ± 1% and the activity at 0.03 µM [2, 12] was 90 ± 8.3%. It also gave an activity at 0.03 µM [2, 13] of 88 ± 4.6%, an activity at 0.1 µM [2, 12] of 125 ± 17.9% and an activity at 0.1 µM [2, 13] of 76 ± 2.8%. The activity at 0.3 µM [2, 12] was 68 ± 8.5%, the activity at 0.3 µM [2, 13] was 58 ± 1.6% and the activity at 0.01 µM [2, 14] was 123 ± 14.4%. For the same compound, the activity at 0.01 µM [2, 15] was 96 ± 2.3%, the activity at 0.03 µM [2, 14] was 112 ± 11.7% and the activity at 0.03 µM [2, 15] was 88 ± 2.3%. For the same compound, the activity at 0.1 µM [2, 14] was 121 ± 16.1%, the activity at 0.1 µM [2, 15] was 68 ± 2.7% and the activity at 0.3 µM [2, 14] was 105 ± 14.9%. The activity at 0.3 µM [2, 15] was 57 ± 1.8%.
